Article PMC5359555, “Mechanistic and structural basis of bioengineered bovine Cathelicidin-5 with optimized therapeutic activity” (Scientific Reports, 2017)
Where a SMILES comes first, the peptide text is derived from it.

Tests used:
RBCs = experiment: Hemolytic assay (hemoglobin release); format: cell-based; settings: 30 μM; RBCs hematocrit ~5%, 1 h 37 °C, absorbance 540 nm, 100% = 2% Triton X-100
Method: Plasmodium falciparum strain 3D7 was cultured in RPMI-1640 supplemented with 25 mg/l L-Glutamine; HEPES, NaHCO3; 50 mg/l Hypoxanthin; Gentamicien; 10% human serum; and RBCs at 3% hematocrit in an atmosphere of 5% CO2, 5% O2, and 90% N2 at 37°C as previously described. The Plasmodium lactate dehydrogenase (pLDH) assay was performed to measure the parasitic growth inhibition as described elsewhere[49] with BMAP-28 and its analogues treatment. In brief, malstat reagent was added to a 96-well plate (100 μL in each well). A Plasmodium infected RBC mixture of 20 μL in each well was mixed thoroughly using a plate shaker. And then 10 μL of each 1 mg/ml diaphorase and Nitroblue tetrozolium (NBT) were added to each well. The solution in the 96-well plate was mixed properly until a brown color appears and the absorbance was measured at 650 nm under a plate reader (PowerWaveHT, BioTek Instruments, USA). The hemolytic assay was carried out as described earlier. Briefly, RBCs prepared from fresh blood (Hematocrit ~5%) were incubated for 1 h at 37 °C after addition of test peptides. Relative hemoglobin concentration in supernatants after centrifugation at 2000× g for 5 min was monitored by measuring the absorbance at 540 nm by the plate reader (PowerWaveHT, BioTek Instruments, USA). As positive control, 100% hemolysis was taken from samples in which 2% Triton X-100 was added.

E. coli BL21 strain = experiment: Transmission electron microscopy, E. coli BL21; format: cell-based, Escherichia coli BL21; settings: E. coli BL21, 2 μM, 1 hour 37 °C
Method: (§1) E. coli DH5α and BL21 strains were subjected to TEM analysis. E. coli strains were cultured at 37°C in LB broth to mid-log phase and harvested by centrifugation at 5000 g for 5 minutes. The cell pellets were re-suspended in fresh LB media with an OD600 = 0.18. A peptide (Syn1) solution at a concentration of 2 μM (MIC) was added to E. coli DH5α and BL21 strains and the samples were incubated at 37°C for 1 hour. The culture was centrifuged at 5000 g for 5 minutes and the cell pellets were collected. The cell pellets were washed twice and re-suspended in 1 mL fixation buffer that contains 2% formaldehyde, 2.5% glutaryldehide in 0.1 M phosphate buffer (pH = 7.4). The fixed bacterial cells were observed under the microscope, JEM-1011 (JEOL, Tokyo, Japan).

E. coli DH5α strain = experiment: Transmission electron microscopy, E. coli DH5α; format: cell-based, Escherichia coli DH5α; settings: 4 μM
Method: as §1, with “A peptide (Syn1) solution at a concentration of 2 μM (MIC) was added to E. coli DH5α and BL21 strains and the samples were incubated at 37°C for 1 hour.” left out

[1] = test system: osteoclasts (RANKL-induced from MDMs); experiment: RANKL-induced osteoclastogenesis; format: cell-based, mouse; settings: 50 ng/ml RANKL plus M-CSF, TRAP staining after 4 days
Method: (§2) The C57BL/6 mice (8 weeks old male) were generated and maintained in a pathogen-free environment as described elsewhere. All animal experiments were carried out under approval from the Animal Research Committee of the Research Institute for Microbial Diseases (Osaka University, Osaka, Japan). All experiments were performed in accordance with relevant guidelines and regulations of Osaka University, Japan. The stromal cell-free osteoclast culture was performed using M-CSF-derived macrophage (MDMs) precursors. The bone marrow cells were flushed from femurs or tibias and cultured for 6 h in α-MEM supplemented with 10% FCS. The non-adherent cells were collected and plated in a 96-well plate at a density of 2 × 10^3 cells/well with 25 ng/ml M-CSF (PeproTech, Rocky Hill, NJ). The cell cultures were rinsed with PBS after 3 days incubation, and the adherent cells were used as MDMs. The MDMs were induced to differentiate into osteoclasts in the presence of 50 ng/ml RANKL plus M-CSF. The cells were treated with different peptide concentration to investigate the effect of peptides on the osteoclastogenesis process. After 4 days, TRAP staining was performed and TRAP positive multinucleated cell numbers (>3 nuclei) were counted.

B16-F1 melanoma tumor = experiment: In vivo B16-F1 melanoma mouse model; settings: C57BL/6 mice n = 6, subcutaneous
Method: as §2, with “The MDMs were induced to differentiate into osteoclasts in the presence of 50 ng/ml RANKL plus M-CSF. The cells were treated with different peptide concentration to investigate the effect of peptides on the osteoclastogenesis process.” left out
Healthy C57BL/6 mice (n = 6) were administered with 30 μM Syn1 peptide mixed with 1 × 10^6 B16-F1 melanoma cells in 0.1 ml of saline via subcutaneous injections. […] The growth size of tumors were monitored in every two days and the tumor volume was measured by a dial-caliper on day 14 and 20 using the formula volume = width^2 × length × 0.52.

E. coli BL21 cells = experiment: Flow cytometry propidium iodide influx, E. coli BL21; format: cell-based, Escherichia coli BL21; settings: E. coli BL21, at peptide MIC; 30 min peptide, 10 μg ml^−1 PI
Method: The effect of peptides on the cell-membrane integrity of E. coli BL21 and DH5α and lymphoma cells was studied using the flow cytometer analysis as described elsewhere. The cells were cultured and washed three times using PBS buffer and incubated for 30 minutes with peptides at different concentration. The incubated lymphoma cells were further processed referring to the annexin V-FITC apoptosis kit. Peptide treated and untreated cells (E. coli/lymphoma) were stained with 10 μg ml^−1 propidium iodide (PI) and incubated for additional 30 min. The incubated cells were washed using PBS to remove unbound dye and flow cytometry analysis was carried out using the FACSCalibur and analyzed by CellQuest Pro Version 5.2.1 software (BD Biosciences, NJ, USA).

B16-F1 melanoma cells = experiment: MTT cell-viability assay, B16-F1 melanoma; format: cell-based, mouse
Method: The T-cell lymphoma (Jurkat) and B-cell lymphoma (Ramos) were cultured using RPMI-1640 medium supplemented with 10% fetal calf serum (FCS), 100 U ml^−1 penicillin and 100 μg ml^−1 streptomycin. An initial cell densities of 5 × 10^3 cells/well was uniformly maintained in a 96 well plate. The B16-F1 melanoma cells were grown in DMEM medium containing 10% FCS, 100 U ml^−1 penicillin and 100 μg ml^−1 streptomycin and 55 μM 2-mercaptoethanol. The cells were trypsinized and plated in a 96-well plate at a density of 5 × 10^3 cells/well. The cells were grown overnight at 37 °C using a 5% CO2 incubator. The cells were treated with different peptide concentration followed by cell proliferation assay. The MTT assay kit (Cayman chemicals, USA) was used to measure the cell viability at a peptide concentration varying from 2 to 15 μM (in triplicate). Fresh culture medium and cells in medium without peptide were considered as negative and positive controls for viability assay and was monitored at 24, 48 and 72 h. The Cayman MTT cell proliferation assay protocol was followed, and the absorbance were recorded at 570 nm using a microplate reader (PowerWaveHT, BioTek Instruments, USA).

CC[C@H](C)[C@H](NC(=O)[C@H](CCCCN)NC(=O)[C@H](CCCNC(=N)N)NC(=O)CNC(=O)[C@H](Cc1ccccc1)NC(=O)[C@H](CO)NC(=O)[C@H](CCCNC(=N)N)NC(=O)[C@H](Cc1ccccc1)NC(=O)CNC(=O)CN)C(=O)N[C@@H](Cc1ccccc1)C(=O)N[C@@H](CCCNC(=N)N)C(=O)N[C@@H](C)C(=O)N[C@@H](Cc1c[nH]c2ccccc12)C(=O)N[C@@H](CCCCN)C(=O)N[C@@H](CCCCN)C(=O)N[C@@H](Cc1ccc(O)cc1)C(=O)NCC(N)=O [Syn1] (H-GGFRSFGRKIFRAWKKYG-NH2; N-terminus assumed)
Hemoglobin release (%) / hemolysis (RBCs): 7.2%
TEM observation (in words) (E. coli BL21 strain): membrane disruption and cell lysis
TEM: membrane abnormalities or disruption (in words) (E. coli DH5α strain): not observed
activity in RANKL-induced osteoclastogenesis (in words) ([1]; 3 μM): significant activity
activity in RANKL-induced osteoclastogenesis (in words) ([1]; 10 μM): complete abolition
tumor formation (in words) (B16-F1 melanoma tumor; 30 μM Syn1 mixed with 1 × 10^6 B16-F1 cells in 0.1 ml saline, day 14 and 20): no tumor formation
survival (in words) (B16-F1 melanoma tumor; 30 μM Syn1 mixed with 1 × 10^6 B16-F1 cells): alive
PI influx (E. coli BL21 cells): ~ 100%
concentration found to be active (B16-F1 melanoma cells): ~ 30 μM
anticancer activity (in words) (B16-F1 melanoma cells; 10 μM): fairly low anticancer activity
